Measurements published in article PMC7763088, “Impact of Different Lipid Ligands on the Stability and IgE-Binding Capacity of the Lentil Allergen Len c 3” (Biomolecules, 2020).
Read-outs that look alike come from different tables or passages of the source.

Experiments:
[1] = biological target: T1, rLen c 3 (Lens culinaris, UniProt A0AT29); assay: TNS displacement lipid binding assay; design: species or system lentil; details: for IC50: 25 °C, 4 μM TNS, 4 μM rLen c 3, read-out: IC50 (TNS displacement)
T1 construct: with the formation of the large fragment 1–80 and the protein without C-terminal Phe93; His8-TrxL (octahistidine-thioredoxin carrier) (N, cleaved yes); made in house; host or cells: Escherichia coli BL-21 (DE3)
T1 sequence (A0AT29 26-118): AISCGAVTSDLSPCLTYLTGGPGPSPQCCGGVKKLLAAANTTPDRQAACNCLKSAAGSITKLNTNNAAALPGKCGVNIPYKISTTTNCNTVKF
Description: The ability of rLen c 3 to bind lipids was assayed by monitoring the displacement of the fluorescent probe TNS. Fluorescence intensity was measured at 25 °C with a F-2710 spectrofluorimeter (Hitachi, Tokyo, Japan), using a […] slit width for both excitation (λ = 320 nm) and emission (λ = 437 nm) and the measurement taken for no longer than 1.5–2 s. After equilibrating TNS (4 μM) in 10 mM phosphate buffer, pH 7.4, or 150 mM sodium chloride, pH 2.5, for 2 min with gentle mixing, the 2 mM of competing ligand was titrated into the 2 mL of 4 μM rLen c 3 solution in 1 μL aliquots. The resulting data were fitted by using a sigmoidal curve-fitting in GraphPad Prism from which the concentration able to displace 50% of the TNS (IC50) was calculated. The dependence of the ligand binding on temperature was performed at 20, 40, 60, 90, and 20 °C, after cooling down as previously described. Temperature was checked with a temperature probe in the cuvette. Each experiment was performed in triplicate, independently.

[2] = biological target: T1, rLen c 3; assay: Effect of lipid ligands on secondary structure and thermostability of rLen c 3 (CD spectroscopy); format: physicochemical, lentil; details: pH 7.4, ligand 1 mM
Description: Circular dichroism spectra were recorded at different temperatures, using a J-810 spectropolarimeter (Jasco, Hachioji, Tokyo, Japan) in a 0.1 cm path length quartz cell (Hellma GmbH & Co. KG, Mullheim, Germany) in the 190–250 nm range, and 0.2, using solutions of rLen c 3 in 10 mM phosphate buffer, pH 7.4, or 150 mM sodium chloride, pH 2.5, simulated gastric fluid, at a concentration of 17 µM. Fatty acids or lysolipids were added at a final concentration of 1 mM. Each experiment was performed twice, independently.

[3] = biological target: T1, rLen c 3; assay: Effect of lipid ligands on gastrointestinal digestion of rLen c 3; format: in vitro ADME, lentil
Description: Simulation of gastrointestinal digestion in vitro was performed as described in [15]. Briefly, gastric digestion was performed for 2 h, using 50 ng of pepsin (p) (Sigma) per 1 μg of rLen c 3 in 0.1 M HCl, pH 2.0 (final protein concentration 0.05 mM). For duodenal digestion, pH of the mixture resulting from gastric digestion was adjusted to 8.0 by addition of ammonium bicarbonate. The obtained mixture was incubated for 24 h at 37 °C with 2.5 ng of trypsin (t) (Promega, Madison, WI, USA) and 10 ng of α-chymotrypsin (ch) (Sigma) per 1 μg of the substrate. Degree of proteolysis was monitored by sodium dodecyl sulfate polyacrylamide gel electrophoresis (SDS-PAGE) under reducing conditions and reversed-phase high-performance liquid chromatography (RP-HPLC) on Luna C18 column (5 μm, 250 × 4.6 mm; Phenomenex, Torrance, CA, USA) at a flow rate of 0.5 mL/min, using a gradient of acetonitrile concentration from 5 to 65% for 45 min in 0.1% trifluoroacetic acid (TFA). Gel analysis was performed, using a densitometer. Electroblotting and subsequent N-terminal protein sequencing were performed as described. The protein was preheated at 100 °C for 30 min to study the effect of temperature on allergen stability. rLen c 3 was preloaded with various lipid ligands (LTP to lipid molar ratio 1:4) for 10 min, in order to investigate their effects on allergen resistance to proteolytic digest. As a control of the influence of lipid ligands on the work of proteolytic enzymes, the same reactions were carried out, using bovine α-casein (Sigma) as a substrate. Some independent experiments were performed in each case.

[4] = biological target: T1, rLen c 3; assay: ELISA of IgE binding to rLen c 3 preincubated with lipid ligands; design: species or system lentil; details: preincubation with 60 μM ligand, sera with 10 μM ligand; sera from 10 patients; p > 0.1
Description: To study the effects of lipid ligands on IgE binding capacity of allergen, rLen c 3 was covalently bound to Nunc Immobilizer Amino surface plates (Thermo Scientific, Waltham, MA, USA), according to peptide coupling protocol. rLen c 3 solution (100 μg/mL) in 100 mM sodium carbonate, pH 9.6, was added to the wells; after that, the plates were incubated at 25 °C for 2 h. Then 10 mM ethanolamine at the same buffer was used for the plates post-coupling at 25 °C for 1 h. Pre-incubation with PBS or lipid ligand solutions in PBS at concentration of 60 μM was performed overnight at 4 °C. After that, the plates were incubated with selected sera in 1:4 dilution, overnight, at 4 °C, with the absence or presence of 10 μM lipid ligands, due to the reversibility of Len c 3-ligand complexes. Subsequent steps of ELISA were carried out as described above. This experiment was performed twice, independently.

In the case of `CCCCCCCCCCCCCCCC(=O)OC[C@@H](O)COP(=O)(O)OCC(O)CO` (stereo partly shown) [LPPG, lyso-palmitoyl phosphatidylglycerol], the IC50 ([1]; 10 mM phosphate buffer, pH 7.4) is reported as 4.3 ± 0.2 µM, the IC50 ([1]; 150 mM sodium chloride, pH 2.5) is reported as 4.3 ± 0.03 µM and the “Change of rLen c 3 affinity for the ligand at acidic pH” value ([1]; pH 2.5 compared with pH 7.4) is reported as “remained unchanged”. For the same molecule, the “Ability of rLen c 3 to bind the ligand after heating and cooling down” value ([1]; pH 7.4, heated from 20 to 90 °C, then cooled down to 20 °C) was “almost completely restored”, the “Recovery of rLen c 3 structure after cooling down in the presence of ligand” value ([2]; cooling down to 20 °C after 98.5 °C) was “complete recovery of the native conformation” and the “Effect of ligand on rLen c 3 thermostability (resistance to thermal denaturation)” value ([2]; heating up to 98.5 °C) was “most pronounced effect”. The “Degradation of rLen c 3 in the presence of ligand” value ([3]; 24 h of duodenal digestion, LTP to lipid molar ratio 1:4) was ~ 55%, the “Effect of protein preheating before digestion in the presence of ligand on rate of allergen degradation” value ([3]; after 4 and 24 h, effect more pronounced with LPPC) was “slightly increased” and the “Effect of ligand on rLen c 3 degradation rate (proteolytic digestion)” value ([3]; gastric then duodenal digestion, LTP to lipid molar ratio 1:4) was “more pronounced”. The “Effect of ligand on IgE binding capacity of rLen c 3” value [4] was “small increase”.
